Reference: publication PMC7854658, “Structural basis for ligand recognition of the neuropeptide Y Y2 receptor” (Nature Communications, 2021)
Numbering of substitutions follows the chain as printed. Values joined by “and” are separate entries in the source; they are usually repeats but may differ in a detail not shown here. Identical values can stand only once.

Tests used:
[1] = set-up: method as in Brothers, S. P. et al., Mol. Pharmacol. 77:46–57, 2010; settings: ref Brothers, S. P. et al., Mol. Pharmacol. 77:46–57, 2010; cited from earlier work
Y2R mutant Q288^6.55A = target: T1, Y2R mutant Q288^6.55A (Homo sapiens, UniProt P49146, Q288A); assay: NPY-induced IP accumulation (IP-One), mutant; type: cell-based
T1 construct: expressed in transfected cells; host or cells: HEK293
T1 sequence (P49146 1-381 Q288A): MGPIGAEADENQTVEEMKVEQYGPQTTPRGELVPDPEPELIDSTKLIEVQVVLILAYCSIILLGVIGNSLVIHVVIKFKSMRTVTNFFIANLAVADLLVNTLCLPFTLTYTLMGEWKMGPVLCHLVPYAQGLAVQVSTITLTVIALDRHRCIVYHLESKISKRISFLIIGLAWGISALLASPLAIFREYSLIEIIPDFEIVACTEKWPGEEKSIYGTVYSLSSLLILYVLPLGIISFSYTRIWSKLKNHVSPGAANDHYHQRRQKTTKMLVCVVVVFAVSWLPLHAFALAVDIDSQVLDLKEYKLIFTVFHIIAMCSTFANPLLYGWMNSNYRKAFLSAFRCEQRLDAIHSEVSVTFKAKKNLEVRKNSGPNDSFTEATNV
Method: (§1) The plasmid hY2R_eYFP_pVitro2 encoding the WT Y2R and a fluorophore for investigating the receptor localization was used as template for the generation of receptor point mutations as previously described. Mutagenesis PCR was performed using the Phusion High-Fidelity Polymerase (Thermo Fisher Scientific, Waltham, MA, USA). […] The preparations of the plasmid DNA were performed using the Wizard plus Mini or Midi DNA purification kit (Promega, Madison, WI, USA).
(§2) To determine the contribution of residues to antagonist binding, IP-One accumulation assays (Cisbio, Codolet, France) were performed. HEK293 cells were seeded into six-well plates and transiently cotransfected with 3200 ng of receptor plasmid DNA and 800 ng of the chimeric G protein (Gα∆6qi4myr) to redirect the Gαi signaling pathway to the Gαq phospholipase C pathway. Transient transfection was carried out using Metafectene as transfection reagent according to the manufacturer’s protocol (Biontex, Munich, Germany) over night. The cells were then reseeded into white 384-well microplates (Greiner Bio-One, Kremsmünster, Austria) at a density of 15,000 cells per well and grown for additional 24 h.
(§3) All dilutions were performed in HBSS containing 20 mM LiCl (stimulation buffer) and DMSO with a final concentration of 0.01%.
(§4) To determine the amount of cellular IPs, the FRET acceptor (IP1-d2) and the FRET donor (anti-IP1-Cryptate) were reconstituted and diluted in lysis and detection buffer (1:20) as described in the manufacturer’s protocol. Three microliters of both solutions were added, and the cells were incubated on a tumbler for 60 min.

Y2R mutant V126^3.28A = target: T2, Y2R mutant V126^3.28A (Homo sapiens, UniProt P49146, V126A); assay: NPY-induced IP accumulation (IP-One), mutant; type: cell-based
T2 construct: expressed in transfected cells; host or cells: HEK293
T2 sequence (P49146 1-381 V126A): T1 sequence (P49146 1-381 Q288A) with V126A, A288Q
Method: as §1, §2, §3, §4

Y2R mutant W281^6.48T = target: T3, Y2R mutant W281^6.48T (Homo sapiens, UniProt P49146, W281T); assay: NPY-induced IP accumulation (IP-One), mutant; type: cell-based
T3 construct: expressed in transfected cells; host or cells: HEK293
T3 sequence (P49146 1-381 W281T): T1 sequence (P49146 1-381 Q288A) with W281T, A288Q
Method: as §1, §2, §3, §4

Y2R mutant L183^4.60A = target: T4, Y2R mutant L183^4.60A (Homo sapiens, UniProt P49146, L183A); assay: NPY-induced IP accumulation (IP-One), mutant; type: cell-based; settings: 1 μM antagonist, source data Fig. 3
T4 construct: expressed in transfected cells; host or cells: HEK293
Method: as §1, §2, §3, §4

Y2R mutant Y228^5.47A = target: T5, Y2R mutant Y228^5.47A (Homo sapiens, UniProt P49146, Y228A); assay: NPY-induced IP accumulation (IP-One), mutant; type: cell-based; settings: 1 μM antagonist, source data Fig. 3
T5 construct: expressed in transfected cells; host or cells: HEK293
Method: as §1, §2, §3, §4

Y2R mutant W116^ECL1A = target: T6, Y2R mutant W116^ECL1A (Homo sapiens, UniProt P49146, W116A); assay: NPY-induced IP accumulation (IP-One), mutant; type: cell-based; settings: 1 μM antagonist, source data Fig. 3
T6 construct: expressed in transfected cells; host or cells: HEK293
Method: as §1, §2, §3, §4

Y2R mutant Y219^5.38A = target: T7, Y2R mutant Y219^5.38A (Homo sapiens, UniProt P49146, Y219A); assay: NPY-induced IP accumulation (IP-One), mutant; type: cell-based; settings: 1 μM antagonist, source data Fig. 3
T7 construct: expressed in transfected cells; host or cells: HEK293
Method: as §1, §2, §3, §4

[2] = 1 μM antagonist, source data Fig. 3
[3] = EC50(NPY + 1 μM antagonist)/EC50(NPY)
[4] = EC50 ratio (WT)/EC50 ratio (mutant)

T5 sequence (P49146 whole entry Y228A): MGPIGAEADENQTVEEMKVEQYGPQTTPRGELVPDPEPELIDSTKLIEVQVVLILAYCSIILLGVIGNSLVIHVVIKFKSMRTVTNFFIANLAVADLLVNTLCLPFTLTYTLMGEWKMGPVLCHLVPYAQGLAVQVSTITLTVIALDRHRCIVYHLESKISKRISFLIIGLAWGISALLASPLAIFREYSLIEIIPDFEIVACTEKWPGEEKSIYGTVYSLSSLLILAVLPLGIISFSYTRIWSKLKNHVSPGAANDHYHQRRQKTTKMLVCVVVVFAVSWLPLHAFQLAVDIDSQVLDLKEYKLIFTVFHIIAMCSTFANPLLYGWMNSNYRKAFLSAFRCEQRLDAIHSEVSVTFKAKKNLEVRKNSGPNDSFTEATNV
T4 sequence (P49146 whole entry L183A): as the sequence (P49146 whole entry Y228A) above, with L183A, A228Y counted along it
T7 sequence (P49146 whole entry Y219A): as the sequence (P49146 whole entry Y228A) above, with Y219A, A228Y counted along it
T6 sequence (P49146 whole entry W116A): as the sequence (P49146 whole entry Y228A) above, with W116A, A228Y counted along it

## N=C(N)NCCC[C@H](NC(=O)CC1(CC(=O)N2CCN(C3c4ccccc4NC(=O)c4ccccc43)CC2)CCCC1)C(=O)NCCn1c(=O)n(-c2ccccc2)n(-c2ccccc2)c1=O (stereo partly drawn) [BIIE0246]
[1]
  Blood-brain-barrier permeability: poor
Y2R mutant Q288^6.55A; [2]
  Average EC50 ratio: 143.2
  EC50 ratio (individual experiments): 101.5 and 185.0
Y2R mutant Q288^6.55A; [3]
  EC50 ratio: 102 and 185
Y2R mutant Q288^6.55A; [4]
  Ratio change (fold): 1.6 fold and 0.9 fold
Y2R mutant V126^3.28A; [2]
  Average EC50 ratio: 302.6
  EC50 ratio (individual experiments): 285.2 and 320.0
Y2R mutant V126^3.28A; [3]
  EC50 ratio: 285 and 320
Y2R mutant V126^3.28A; [4]
  Ratio change (fold): 0.6 fold and 0.5 fold
Y2R mutant W281^6.48T; [2]
  Average EC50 ratio: 2.6
  EC50 ratio (individual experiments): 3.3 and 2.0
Y2R mutant W281^6.48T; [3]
  EC50 ratio: 3 and 2
Y2R mutant W281^6.48T; [4]
  Ratio change (fold): 48 fold and 80 fold
Y2R mutant L183^4.60A
  Average EC50 ratio: 10.3
  EC50 ratio (individual experiments): 6.3 and 14.3
Y2R mutant Y228^5.47A
  Average EC50 ratio: 18.8
  EC50 ratio (individual experiments): 10.5 and 27.0
Y2R mutant W116^ECL1A
  Average EC50 ratio: 38.2
  EC50 ratio (individual experiments): 21.7 and 54.7
Y2R mutant Y219^5.38A
  Average EC50 ratio: 97.9
  EC50 ratio (individual experiments): 48.6 and 147.2
